Results from patent publication US9023986B2, “Glucose-dependent insulinotropic peptide analogs” (Hoffmann-La Roche Inc., priority 2010, dated 2015).

Target: T1, human GIPR (Homo sapiens, UniProt P48546)
T1 construct: host or cells: CHO-K1
T1 sequence (P48546 22-466): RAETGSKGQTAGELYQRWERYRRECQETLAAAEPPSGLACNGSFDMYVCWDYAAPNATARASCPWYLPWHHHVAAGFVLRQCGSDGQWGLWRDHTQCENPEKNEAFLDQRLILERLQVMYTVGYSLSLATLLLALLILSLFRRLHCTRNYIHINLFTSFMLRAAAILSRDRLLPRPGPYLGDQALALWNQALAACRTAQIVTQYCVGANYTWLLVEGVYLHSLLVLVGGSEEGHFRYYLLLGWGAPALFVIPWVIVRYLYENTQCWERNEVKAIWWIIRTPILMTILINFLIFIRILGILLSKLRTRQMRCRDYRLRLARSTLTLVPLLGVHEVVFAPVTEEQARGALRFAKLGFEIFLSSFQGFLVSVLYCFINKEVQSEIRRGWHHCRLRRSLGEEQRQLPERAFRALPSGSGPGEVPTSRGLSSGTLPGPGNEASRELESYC
Test: cAMP production in CHO-K1 cells expressing human GIPR (LANCE cAMP assay)
Type: cell-based
Details: for Emax: CHO-K1, read-out: % activation of cAMP (maximal stimulation)
Method: CHO—K1 cells expressing human GIPR were obtained from DiscoverX Corporation (Fremont, Calif.). The cells were cultured in Ham's F-12 nutrient media supplemented with 10% foetal bovine serum, 800 μg/ml geneticin, 300 μg/ml hydromycin, 2 mM L-glutamine, and Penicillin-streptomycin (100 units, 100 μg) at 37° C. in a 5% CO2 incubator. The cells were harvested at 90% confluence.
The cells were suspended in Ham's F-12 nutrient media to a concentration of 200,000 cells/ml. The cells were then plated in a 384 well plate at with […] of the suspension added per well. The cells were incubated overnight at 37° C. in a 5% CO2 incubator.
The activity of the compounds was determined by stimulating the CHO—K1 cells with the test compound, and measuring the levels of cAMP produced. The activity of the compounds was compared to the activity of native GIP, as GIP stimulates cAMP production. 6 μl of the test compound in stimulation buffer (990 ml Hank's Balanced Salt solution (HBSS) (1×) (Invitrogen Corp #14025-092), 10 ml Hepes buffer solution (1 mol·L) (Invitrogen Corp 15630-080), 1 g BSA (final 0.1%), and 1 ml IBMX 250 mM stock prepared fresh in DMSO (Sigma-Aldrich 15879)) were added to cells, followed by 6 μl of Alexa Fluor® 647-anti cAMP antibody (Perkin Elmer) in stimulation buffer. […] The well plate was centrifuged for 3 min at 300 rpm, and incubated at room temperature for 45 minutes. 12 μl of detection mixture (biotin cAMP and EUW8044 labeled streptavidin (Eu-SA) in cAMP Detection Buffer (Perkin Elmer)) was added and incubated for 60 min at room temperature.
The levels of cAMP produced were measured according to the detailed protocol outlined in the Perkin Elmer LANCE cAMP Assay Perkin Elmer Lance cAMP Kit manual. The activity of the compounds was compared to the activity of native GIP.
The plates are read on a TRF detection instrument, EnVision® (Perkin Elmer) (excitation at 340 nm and emission at 665 nm). The values of the cAMP signal are obtained from the standard cAMP curve and used to determine the amount of maximal stimulation, and EC50 for stimulating the cAMP signal.

Row | Compound | EC50 | Emax
1 | CC[C@H](C)[C@H](NC(=O)[C@H](CO)NC(=O)[C@H](Cc1ccc(O)cc1)NC(=O)[C@H](CC(=O)O)NC(=O)[C@H](CO)NC(=O)[C@@H](NC(=O)[C@H](Cc1ccccc1)NC(=O)[C@@H](NC(=O)CNC(=O)[C@H](CCC(=O)O)NC(=O)[C@H](C)NC(=O)CCc1ccc(O)cc1)[C@@H](C)O)[C@@H](C)CC)C(=O)N[C@@H](C)C(=O)N[C@@H](CCSC)C(=O)N[C@@H](CC(=O)O)C(=O)N[C@@H](CCCCN)C(=O)N[C@H](C(=O)N[C@@H](Cc1c[nH]cn1)C(=O)N[C@@H](CCC(N)=O)C(=O)N[C@@H](CCC(N)=O)C(=O)N[C@@H](CC(=O)O)C(=O)N[C@@H](Cc1ccccc1)C(=O)N[C@H](C(=O)N[C@@H](CC(N)=O)C(=O)N[C@@H](Cc1c[nH]c2ccccc12)C(=O)N[C@@H](CC(C)C)C(=O)N[C@@H](CC(C)C)C(=O)N[C@@H](C)C(=O)N[C@@H](CCC(N)=O)C(=O)N[C@@H](CCCCN)C(N)=O)C(C)C)[C@@H](C)CC [Example 7] | 0.095 nM | 103%
2 | CC[C@H](C)[C@H](NC(=O)[C@H](CO)NC(=O)[C@H](Cc1ccc(O)cc1)NC(=O)[C@H](CC(=O)O)NC(=O)[C@H](CO)NC(=O)[C@@H](NC(=O)[C@H](Cc1ccccc1)NC(=O)[C@@H](NC(=O)CNC(=O)[C@H](CCC(=O)O)NC(=O)[C@H](C)NC(=O)[C@@H](Cc1ccccc1)NC(C)=O)[C@@H](C)O)[C@@H](C)CC)C(=O)N[C@@H](C)C(=O)N[C@@H](CCSC)C(=O)N[C@@H](CC(=O)O)C(=O)N[C@@H](CCCCN)C(=O)N[C@H](C(=O)N[C@@H](Cc1c[nH]cn1)C(=O)N[C@@H](CCC(N)=O)C(=O)N[C@@H](CCC(N)=O)C(=O)N[C@@H](CC(=O)O)C(=O)N[C@@H](Cc1ccccc1)C(=O)N[C@H](C(=O)N[C@@H](CC(N)=O)C(=O)N[C@@H](Cc1c[nH]c2ccccc12)C(=O)N[C@@H](CC(C)C)C(=O)N[C@@H](CC(C)C)C(=O)N[C@@H](C)C(=O)N[C@@H](CCC(N)=O)C(=O)N[C@@H](CCCCN)C(N)=O)C(C)C)[C@@H](C)CC [Example 8] | 0.685 nM | 102%
3 | CC[C@H](C)[C@H](NC(=O)[C@H](CO)NC(=O)[C@H](Cc1ccc(O)cc1)NC(=O)[C@H](CC(=O)O)NC(=O)[C@H](CO)NC(=O)[C@@H](NC(=O)[C@H](Cc1ccccc1)NC(=O)[C@@H](NC(=O)CNC(=O)[C@H](CCC(=O)O)NC(=O)[C@H](C)NC(=O)CCc1ccccc1)[C@@H](C)O)[C@@H](C)CC)C(=O)N[C@@H](C)C(=O)N[C@@H](CCSC)C(=O)N[C@@H](CC(=O)O)C(=O)N[C@@H](CCCCN)C(=O)N[C@H](C(=O)N[C@@H](Cc1c[nH]cn1)C(=O)N[C@@H](CCC(N)=O)C(=O)N[C@@H](CCC(N)=O)C(=O)N[C@@H](CC(=O)O)C(=O)N[C@@H](Cc1ccccc1)C(=O)N[C@H](C(=O)N[C@@H](CC(N)=O)C(=O)N[C@@H](Cc1c[nH]c2ccccc12)C(=O)N[C@@H](CC(C)C)C(=O)N[C@@H](CC(C)C)C(=O)N[C@@H](C)C(=O)N[C@@H](CCC(N)=O)C(=O)N[C@@H](CCCCN)C(N)=O)C(C)C)[C@@H](C)CC [Example 9] | 0.797 nM | 101%
4 | CC[C@H](C)[C@H](NC(=O)[C@H](CO)NC(=O)[C@H](Cc1ccc(O)cc1)NC(=O)[C@H](CC(=O)O)NC(=O)[C@H](CO)NC(=O)[C@@H](NC(=O)[C@H](Cc1ccccc1)NC(=O)[C@@H](NC(=O)CNC(=O)[C@H](CCC(=O)O)NC(=O)[C@H](C)NC(=O)[C@@H](Cc1c[nH]c2ccccc12)NC(C)=O)[C@@H](C)O)[C@@H](C)CC)C(=O)N[C@@H](C)C(=O)N[C@@H](CCSC)C(=O)N[C@@H](CC(=O)O)C(=O)N[C@@H](CCCCN)C(=O)N[C@H](C(=O)N[C@@H](Cc1c[nH]cn1)C(=O)N[C@@H](CCC(N)=O)C(=O)N[C@@H](CCC(N)=O)C(=O)N[C@@H](CC(=O)O)C(=O)N[C@@H](Cc1ccccc1)C(=O)N[C@H](C(=O)N[C@@H](CC(N)=O)C(=O)N[C@@H](Cc1c[nH]c2ccccc12)C(=O)N[C@@H](CC(C)C)C(=O)N[C@@H](CC(C)C)C(=O)N[C@@H](C)C(=O)N[C@@H](CCC(N)=O)C(=O)N[C@@H](CCCCN)C(N)=O)C(C)C)[C@@H](C)CC [Example 10] | 0.1 nM | 102%
5 | CC[C@H](C)[C@H](NC(=O)[C@H](CO)NC(=O)[C@H](Cc1ccc(O)cc1)NC(=O)[C@H](CC(=O)O)NC(=O)[C@H](CO)NC(=O)[C@@H](NC(=O)[C@H](Cc1ccccc1)NC(=O)[C@@H](NC(=O)CNC(=O)[C@H](CCC(=O)O)NC(=O)[C@H](C)NC(=O)[C@@H](Cc1cccnc1)NC(C)=O)[C@@H](C)O)[C@@H](C)CC)C(=O)N[C@@H](C)C(=O)N[C@@H](CCSC)C(=O)N[C@@H](CC(=O)O)C(=O)N[C@@H](CCCCN)C(=O)N[C@H](C(=O)N[C@@H](Cc1c[nH]cn1)C(=O)N[C@@H](CCC(N)=O)C(=O)N[C@@H](CCC(N)=O)C(=O)N[C@@H](CC(=O)O)C(=O)N[C@@H](Cc1ccccc1)C(=O)N[C@H](C(=O)N[C@@H](CC(N)=O)C(=O)N[C@@H](Cc1c[nH]c2ccccc12)C(=O)N[C@@H](CC(C)C)C(=O)N[C@@H](CC(C)C)C(=O)N[C@@H](C)C(=O)N[C@@H](CCC(N)=O)C(=O)N[C@@H](CCCCN)C(N)=O)C(C)C)[C@@H](C)CC [Example 11] | 0.08 nM | 102%
6 | CC[C@H](C)[C@H](NC(=O)[C@H](CO)NC(=O)[C@H](Cc1ccc(O)cc1)NC(=O)[C@H](CC(=O)O)NC(=O)[C@H](CO)NC(=O)[C@@H](NC(=O)[C@H](Cc1ccccc1)NC(=O)[C@@H](NC(=O)CNC(=O)[C@H](CCC(=O)O)NC(=O)[C@H](C)NC(=O)[C@@H](Cc1ccccc1Cl)NC(C)=O)[C@@H](C)O)[C@@H](C)CC)C(=O)N[C@@H](C)C(=O)N[C@@H](CCSC)C(=O)N[C@@H](CC(=O)O)C(=O)N[C@@H](CCCCN)C(=O)N[C@H](C(=O)N[C@@H](Cc1c[nH]cn1)C(=O)N[C@@H](CCC(N)=O)C(=O)N[C@@H](CCC(N)=O)C(=O)N[C@@H](CC(=O)O)C(=O)N[C@@H](Cc1ccccc1)C(=O)N[C@H](C(=O)N[C@@H](CC(N)=O)C(=O)N[C@@H](Cc1c[nH]c2ccccc12)C(=O)N[C@@H](CC(C)C)C(=O)N[C@@H](CC(C)C)C(=O)N[C@@H](C)C(=O)N[C@@H](CCC(N)=O)C(=O)N[C@@H](CCCCN)C(N)=O)C(C)C)[C@@H](C)CC [Example 12] | 0.121 nM | 104%
7 | CC[C@H](C)[C@H](NC(=O)[C@H](CO)NC(=O)[C@H](Cc1ccc(O)cc1)NC(=O)[C@H](CC(=O)O)NC(=O)[C@H](CO)NC(=O)[C@@H](NC(=O)[C@H](Cc1ccccc1)NC(=O)[C@@H](NC(=O)CNC(=O)[C@H](CCC(=O)O)NC(=O)[C@H](C)NC(=O)[C@@H](Cc1cccc(Cl)c1)NC(C)=O)[C@@H](C)O)[C@@H](C)CC)C(=O)N[C@@H](C)C(=O)N[C@@H](CCSC)C(=O)N[C@@H](CC(=O)O)C(=O)N[C@@H](CCCCN)C(=O)N[C@H](C(=O)N[C@@H](Cc1c[nH]cn1)C(=O)N[C@@H](CCC(N)=O)C(=O)N[C@@H](CCC(N)=O)C(=O)N[C@@H](CC(=O)O)C(=O)N[C@@H](Cc1ccccc1)C(=O)N[C@H](C(=O)N[C@@H](CC(N)=O)C(=O)N[C@@H](Cc1c[nH]c2ccccc12)C(=O)N[C@@H](CC(C)C)C(=O)N[C@@H](CC(C)C)C(=O)N[C@@H](C)C(=O)N[C@@H](CCC(N)=O)C(=O)N[C@@H](CCCCN)C(N)=O)C(C)C)[C@@H](C)CC [Example 13] | 0.072 nM | 106%
